Laboratory results: PubChem BioAssay AID1745844 (Carcinogenic Potency Database (CPDB), 2022)
Values joined by “and” are separate entries in the source; they are usually repeats but may differ in a detail not shown here. Equal entries are not always repeated. Active and inactive are the calls of the source. How the calls were made is not given here.

Tested on: rodent lifetime carcinogenesis bioassay, tumor incidence TD50
Test: chronic cancer bioassays in animals – CPDB, compiled studies (AID 1745844)

O=C1CN(N=Cc2ccc([N+](=O)[O-])o2)C(=O)N1 was tested, and the TD50 (mouse, strain B6C3F1, females, in feed, site: cervix uteri, lesion: leiomyosarcoma, dosed 64 weeks, study length 64 weeks) was 4000 mg/kg/day (inactive), the TD50 (mouse, strain B6C3F1, females, in feed, site: liver, lesion: hepatocellular adenoma + hepatocellular carcinoma + neoplastic nodule, dosed 103 weeks, study length 105 weeks) was 2330 mg/kg/day and the TD50 (mouse, strain B6C3F1, females, in feed, site: ovary, lesion: granulosa-cell tumor, benign + granulosa-cell tumor, malignant + mixed tumor, benign + tubular adenoma, dosed 103 weeks, study length 105 weeks) was 866 mg/kg/day. For the same compound, the TD50 (mouse, strain B6C3F1, females, in feed, site: ovary, lesion: granulosa-cell tumor, benign + granulosa-cell tumor, malignant, dosed 103 weeks, study length 105 weeks) was 2560 mg/kg/day, the TD50 (mouse, strain B6C3F1, females, in feed, site: ovary, lesion: granulosa-cell tumor, benign, dosed 103 weeks, study length 105 weeks) was 8470 mg/kg/day and the TD50 (mouse, strain B6C3F1, females, in feed, site: ovary, lesion: granulosa-cell tumor, dosed 64 weeks, study length 64 weeks) was 4020 mg/kg/day (inactive). It also gave a TD50 (mouse, strain B6C3F1, females, in feed, site: ovary, lesion: mixed tumor, benign + tubular adenoma, dosed 103 weeks, study length 105 weeks) of 1400 mg/kg/day, a TD50 (mouse, strain B6C3F1, females, in feed, site: ovary, lesion: mixed tumor, benign, dosed 103 weeks, study length 105 weeks) of 3380 mg/kg/day and a TD50 (mouse, strain B6C3F1, females, in feed, site: ovary, lesion: tubular adenoma, dosed 103 weeks, study length 105 weeks) of 2530 mg/kg/day. For the same compound, the carcinogen call (mouse, strain B6C3F1, males, in feed, site: any site (literature study), lesion: several types, types named in the paper, dosed 103 weeks, study length 105 weeks) was “negative (inactive)”, the carcinogen call (mouse, strain BDF1, females, in feed, site: any site (literature study), lesion: several types, types named in the paper, dosed 104 weeks, study length 104 weeks) was “negative (inactive)” and the carcinogen call (mouse, strain BDF1, females, in feed, site: liver, lesion: hemangioma, dosed 104 weeks, study length 104 weeks) was “negative (inactive)”. For the same compound, the carcinogen call (mouse, strain BDF1, females, in feed, site: lung, lesion: adenocarcinoma, dosed 104 weeks, study length 104 weeks) was “negative (inactive)”, the carcinogen call (mouse, strain BDF1, males, in feed, site: any site (literature study), lesion: several types, types named in the paper, dosed 104 weeks, study length 104 weeks) was “negative (inactive)” and the carcinogen call (mouse, strain BDF1, males, in feed, site: liver, lesion: adenoma, dosed 104 weeks, study length 104 weeks) was “negative (inactive)”. For the same compound, the carcinogen call (mouse, strain BDF1, males, in feed, site: liver, lesion: hemangioma, dosed 104 weeks, study length 104 weeks) was “negative (inactive)”, the TD50 (mouse, strain BDF1, males, in feed, site: lung, lesion: adenoma, dosed 104 weeks, study length 104 weeks) was 53900 mg/kg/day (inactive) and the TD50 (mouse, strain Charles River CD1, females, in feed, site: liver, lesion: hemangioma, dosed 93 weeks, study length 100 weeks) was 4460 mg/kg/day (inactive). For the same compound, the carcinogen call (mouse, strain Charles River CD1, females, in feed, site: liver, lesion: hemangiosarcoma, dosed 93 weeks, study length 100 weeks) was “negative (inactive)”, the carcinogen call (mouse, strain Charles River CD1, females, in feed, site: liver, lesion: hepatocellular adenoma, dosed 93 weeks, study length 100 weeks) was “negative (inactive)” and the carcinogen call (mouse, strain Charles River CD1, females, in feed, site: lung, lesion: alveolar-cell adenoma, dosed 93 weeks, study length 100 weeks) was “negative (inactive)”. The carcinogen call (mouse, strain Charles River CD1, females, in feed, site: lung, lesion: alveolar-cell carcinoma, dosed 93 weeks, study length 100 weeks) was “negative (inactive)”, the TD50 (mouse, strain Charles River CD1, males, in feed, site: all sites, lesion: myeloid leukemia, dosed 93 weeks, study length 100 weeks) was 588 mg/kg/day (inactive) and the carcinogen call (mouse, strain Charles River CD1, males, in feed, site: liver, lesion: hemangiosarcoma, dosed 93 weeks, study length 100 weeks) was “negative (inactive)”. For the same compound, the TD50 (mouse, strain Charles River CD1, males, in feed, site: liver, lesion: hepatocellular adenoma, dosed 93 weeks, study length 100 weeks) was 1200 mg/kg/day (inactive), the carcinogen call (mouse, strain Charles River CD1, males, in feed, site: liver, lesion: hepatocellular carcinoma, dosed 93 weeks, study length 100 weeks) was “negative (inactive)” and the TD50 (mouse, strain Charles River CD1, males, in feed, site: lung, lesion: alveolar-cell adenoma, dosed 93 weeks, study length 100 weeks) was 833 mg/kg/day (inactive). For the same compound, the TD50 (mouse, strain Charles River CD1, males, in feed, site: lung, lesion: alveolar-cell carcinoma, dosed 93 weeks, study length 100 weeks) was 17000 mg/kg/day (inactive), the carcinogen call (rat, strain Charles River CD (Sprague-Dawley), females, in feed, site: any site (literature study), lesion: malignant tumor, dosed 104 weeks, study length 104 weeks) was “negative (inactive)” and the carcinogen call (rat, strain Charles River CD (Sprague-Dawley), females, in feed, site: any site (literature study), lesion: one or several types, types not named, dosed 104 weeks, study length 104 weeks) was “negative (inactive)”. For the same compound, the carcinogen call (rat, strain Charles River CD (Sprague-Dawley), females, in feed, site: mammary gland, lesion: several types, types named in the paper, dosed 104 weeks, study length 104 weeks) was “negative (inactive)”, the TD50 (rat, strain Charles River CD (Sprague-Dawley), males, in feed, site: any site (literature study), lesion: malignant tumor, dosed 104 weeks, study length 104 weeks) was 1200 mg/kg/day (inactive) and the carcinogen call (rat, strain Charles River CD (Sprague-Dawley), males, in feed, site: any site (literature study), lesion: one or several types, types not named, dosed 104 weeks, study length 104 weeks) was “negative (inactive)”. The TD50 (rat, strain Charles River CD (Sprague-Dawley), males, in feed, site: mammary gland, lesion: fibroadenoma, dosed 104 weeks, study length 104 weeks) was 878 mg/kg/day (inactive), the TD50 (rat, strain Fischer 344, females, in feed, site: clitoral gland, lesion: adenoma, dosed 103 weeks, study length 105 weeks) was 93.7 mg/kg/day (inactive) and the TD50 (rat, strain Fischer 344, males, in feed, site: kidney, lesion: tubule adenoma + tubule carcinoma, dosed 103 weeks, study length 105 weeks) was 163 mg/kg/day and 698 mg/kg/day. The TD50 (rat, strain Fischer 344, males, in feed, site: liver, lesion: hepatocellular adenoma + hepatocellular carcinoma + neoplastic nodule, dosed 103 weeks, study length 105 weeks) was 332 mg/kg/day, the TD50 (rat, strain Fischer 344, males, in feed, site: subcutaneous tissue, lesion: fibroma, dosed 103 weeks, study length 105 weeks) was 303 mg/kg/day and the carcinogen call (rat, strain Fischer 344, males, in feed, site: urinary bladder, lesion: one or several types, types not named, dosed 104 weeks, study length 104 weeks) was “negative (inactive)”. The TD50 (rat, strain Holtzman albino (Sprague-Dawley derived), females, in feed, site: mammary gland, lesion: fibroadenoma, dosed 36 weeks, study length 54 weeks) was 120 mg/kg/day (inactive), the TD50 (rat, strain Holtzman albino (Sprague-Dawley derived), females, in feed, site: mammary tissue, wider than the gland, lesion: one or several types, types not named, dosed 44 weeks, study length 60 weeks) was 214 mg/kg/day (inactive) and the TD50 (rat, strain Sprague-Dawley, females, in feed, site: any site (literature study), lesion: several types, types named in the paper, dosed 75 weeks, study length 80 weeks) was 185 mg/kg/day (inactive). The TD50 (rat, strain Sprague-Dawley, females, in feed, site: any site (literature study), lesion: several types, types named in the paper, dosed 104 weeks, study length 104 weeks) was 64.2 mg/kg/day and the TD50 (rat, strain Sprague-Dawley, females, in feed, site: mammary gland, lesion: fibroadenoma, dosed 104 weeks, study length 104 weeks) was 54.3 mg/kg/day.
Compound CCCN(N=O)/C(N)=N/[N+](=O)[O-] has a TD50 (rat, strain Wistar, males, in drinking water, site: stomach, glandular, lesion: adenocarcinoma, dosed 52 weeks, study length 65 weeks) of 2.85 mg/kg/day, a TD50 (rat, strain Wistar, males, in drinking water, site: stomach, glandular, lesion: adenocarcinoma, dosed 52 weeks, study length 78 weeks) of 2.27 mg/kg/day and a TD50 (rat, strain Wistar, males, in drinking water, site: stomach, glandular, lesion: adenoma, dosed 34 weeks, study length 65 weeks) of 1.9 mg/kg/day. For the same compound, the TD50 (rat, strain Wistar, males, in drinking water, site: stomach, glandular, lesion: adenoma, dosed 52 weeks, study length 65 weeks) was 0.919 mg/kg/day and the TD50 (rat, strain Wistar, males, in drinking water, site: stomach, glandular, lesion: adenoma, dosed 52 weeks, study length 78 weeks) was 2.27 mg/kg/day.
CC(CO)OC(C)CO (stereo not given) (tested in a mixture with another compound) was tested, and the carcinogen call (mouse, strain B6C3F1, females, in drinking water, site: any site (literature study), lesion: several types, types named in the paper, dosed 104 weeks, study length 104 weeks) was “negative (inactive)”, the TD50 (mouse, strain B6C3F1, females, in drinking water, site: lung, lesion: alveolar/bronchiolar adenoma + alveolar/bronchiolar carcinoma, dosed 104 weeks, study length 104 weeks) was 31800 mg/kg/day and the TD50 (mouse, strain B6C3F1, males, in drinking water, site: any site (literature study), lesion: several types, types named in the paper, dosed 104 weeks, study length 104 weeks) was 24500 mg/kg/day (inactive). For the same compound, the TD50 (mouse, strain B6C3F1, males, in drinking water, site: lung, lesion: alveolar/bronchiolar adenoma + alveolar/bronchiolar carcinoma, dosed 104 weeks, study length 104 weeks) was 18100 mg/kg/day, the carcinogen call (rat, strain Fischer 344, females, in drinking water, site: any site (literature study), lesion: several types, types named in the paper, dosed 104 weeks, study length 104 weeks) was “negative (inactive)” and the TD50 (rat, strain Fischer 344, males, in drinking water, site: any site (literature study), lesion: several types, types named in the paper, dosed 104 weeks, study length 102 weeks) was 274 mg/kg/day (inactive). The TD50 (rat, strain Fischer 344, males, in drinking water, site: liver, lesion: hepatocellular adenoma + hepatoblastoma + hepatocellular carcinoma, dosed 104 weeks, study length 102 weeks) was 68200 mg/kg/day.
CC[C@H]1OC(=O)[C@H](C)[C@@H](O[C@H]2C[C@@](C)(OC)[C@@H](O)[C@H](C)O2)[C@H](C)[C@@H](O[C@@H]2O[C@H](C)C[C@H](N(C)C)[C@H]2O)[C@](C)(O)C[C@@H](C)C(=O)[C@H](C)[C@@H](O)[C@]1(C)O was tested, and the carcinogen call (mouse, strain B6C3F1, females, in feed, site: any site (literature study), lesion: several types, types named in the paper, dosed 103 weeks, study length 104 weeks) was “negative (inactive)”, the carcinogen call (mouse, strain B6C3F1, males, in feed, site: any site (literature study), lesion: several types, types named in the paper, dosed 103 weeks, study length 104 weeks) was “negative (inactive)” and the carcinogen call (rat, strain Fischer 344, females, in feed, site: any site (literature study), lesion: several types, types named in the paper, dosed 103 weeks, study length 104 weeks) was “negative (inactive)”. For the same compound, the TD50 (rat, strain Fischer 344, females, in feed, site: liver, lesion: hepatocellular adenoma + hepatocellular carcinoma + neoplastic nodule, dosed 103 weeks, study length 104 weeks) was 5850 mg/kg/day, the TD50 (rat, strain Fischer 344, males, in feed, site: any site (literature study), lesion: several types, types named in the paper, dosed 103 weeks, study length 104 weeks) was 2020 mg/kg/day (inactive) and the TD50 (rat, strain Fischer 344, males, in feed, site: liver, lesion: hepatocellular adenoma + hepatocellular carcinoma + neoplastic nodule, dosed 103 weeks, study length 104 weeks) was 3950 mg/kg/day.
With CC(C)(C)c1cc([N+](=O)[O-])cc([N+](=O)[O-])c1OS(C)(=O)=O the TD50 (rat, strain Sprague-Dawley, females, in feed, site: any site (literature study), lesion: several types, types named in the paper, dosed 52 weeks, study length 52 weeks) was 2.66 mg/kg/day.
For CN[C@H]1CC[C@@H](c2ccc(Cl)c(Cl)c2)c2ccccc21, the TD50 (mouse, strain Charles River CD1, females, in feed, site: lung, lesion: alveolar/bronchiolar adenoma, dosed 104 weeks, study length 104 weeks) was 247 mg/kg/day (inactive), the TD50 (mouse, strain Charles River CD1, males, in feed, site: liver, lesion: hepatocellular adenoma, dosed 104 weeks, study length 104 weeks) was 147 mg/kg/day and the TD50 (mouse, strain Charles River CD1, males, in feed, site: liver, lesion: hepatocellular carcinoma, dosed 104 weeks, study length 104 weeks) was 425 mg/kg/day. The TD50 (rat, strain Long-Evans, females, in feed, site: thyroid gland, lesion: follicular-cell adenoma, dosed 104 weeks, study length 104 weeks) was 352 mg/kg/day (inactive).
In the case of O=NN(CC(=O)O)CC(=O)O, the TD50 (rat, strain MRC, females, in drinking water, site: any site (literature study), lesion: several types, types named in the paper, dosed 72 weeks, study length 104 weeks) is reported as 63.9 mg/kg/day (inactive), the TD50 (rat, strain MRC, males, in drinking water, site: any site (literature study), lesion: several types, types named in the paper, dosed 72 weeks, study length 104 weeks) is reported as 76 mg/kg/day (inactive) and the TD50 (rat, strain MRC, males, in drinking water, site: pituitary gland, lesion: one or several types, types not named, dosed 72 weeks, study length 104 weeks) is reported as 66.9 mg/kg/day (inactive).
